How the values were obtained:
[1] = tested on: shRNA CTRL Jurkat clones (E6.1 Jurkat T cell line); assay: Apoptosis assay (annexin V-FITC and PI staining, flow cytometry) in shRNA CTRL Jurkat clones; type: cell-based; settings: for Apoptosis response % shRNACTRL: shRNA CTRL Jurkat clones
Experimental: (§1) The apoptosis was assessed by flow cytometry. Columns with standard deviation represent the mean percentage of 3 experiments.
(§2) Histograms of gated cells represent early and late apoptotic populations. As shown in the left panel, 42% of treated shRNA CTRL cells are in apoptosis whereas 18% of apoptotic shRNA BACH2 cells are observed after BACH2 repression
(§3) The inventors firstly added FAS ligand (FASLG/TNFSF6) or PMA (phorbol myristic acetate) (see Table 2) to control or to cells transfected with BACH2 sh RNA. They further treated control and transfected cells (with BACH2 sh RNA) by a 18-hours stimulation with anti-CD2, anti-CD28 or anti-CD3 antibodies.

[2] = tested on: shRNA BACH2 Jurkat clones (E6.1 Jurkat T cell line); assay: Apoptosis assay (annexin V-FITC and PI staining, flow cytometry) in shRNA BACH2 Jurkat clones; type: cell-based; settings: for Apoptosis response % shRNABACH2: shRNA BACH2 Jurkat clones; for Apoptosis response Difference %: shRNACTRL minus shRNABACH2 Jurkat clones
Experimental: as §1, §2, §3

[3] = tested on: Fas L mRNA in CD4+ cells from a patient having a hemizigous deletion of BACH2 gene; assay: Fas L mRNA abundance in CD4+ cells ex vivo in function of etoposide treatment; type: cell-based, human; settings: CD4+ cells having lost one copy of BACH2, compared with control CD4+ cells from a healthy donor
Text: This observation is further confirmed by the ex-vivo analysis shown at FIG. 8, wherein, clearly, CD4+ T cells having hemizigous BACH2 fail to express FasL mRNA.

Molecule	Apoptosis response % shRNACTRL [1]	Apoptosis response % shRNABACH2 [2]	Apoptosis response Difference % [2] [%]	cells in apoptosis (early and late apoptotic populations) ([1]; clone shRNA CTRL-A, 1 μg/ml etoposide, 18 hrs) [%]	FasL mRNA production upon etoposide exposure [3]	reduction in the number of apoptotic cells (AnnexinV+) in the BACH2-repressed clone ([2]; clone shRNA BACH2-C versus shRNA control-A, 1 μg/ml of etoposide)	apoptotic cells (early and late apoptotic populations) ([2]; clone shRNA BACH2-C, 1 μg/ml etoposide, 18 hrs) [%]
CCCCCCCCCCCCCC(=O)O[C@@H]1[C@@H](C)[C@@]2(O)[C@@H](C=C(CO)C[C@]3(O)C(=O)C(C)=C[C@@H]23)[C@@H]2C(C)(C)[C@]12OC(C)=O [PMA, phorbol myristic acetate]	16.17 (+/−2.26) %	16.7 (+/−6.12) %	−0.5				
COc1cc([C@@H]2c3cc4c(cc3[C@@H](O[C@@H]3O[C@@H]5CO[C@@H](C)O[C@H]5[C@H](O)[C@H]3O)[C@H]3COC(=O)[C@H]23)OCO4)cc(OC)c1O [Etoposide]	41.2 (+/−4.94) %	18.27 (+/−2.71) %	23	42	fails to produce FasL	two-fold reduction	18
Fas-L: FAS ligand (FASLG/TNFSF6) added to Jurkat clones to trigger apoptosis (protein, UniProt P48023 130-281, looked up) Tumor necrosis factor ligand …: QIGHPSPPPEKKELRKVAHLTGKSNSRSMPLEWEDTYGIVLLSGVKYKKGGLVINETGLYFVYSKVYFRGQSCNNLPLSHKVYMRNSKYPQDLVMMEGKMMSYCTTGQMWARSSYLGAVFNLTSADHLYVNVSELSLVNFEESQTFFGLYKL	33.18 (+/−2.32) %	34.51 (+/−3.75) %	−1.3				

— patent publication US9828644B2, “BACH2 repression in cells” (UNIVERSITE LIBRE DE BRUXELLES, priority 2010, dated 2017)
